Patent publication US20050014849A1, “Antifungal phenylethylene” (priority 2001, published 2005)
Values after ≈ are worked out from the molar mass of the structure shown. “Also recorded” adds a separate entry of the source.

What was measured:
[1] = system: Streptococcus pneumoniae ATCC 6303; assay: NCCLS disk susceptibility test; format: cell-based; details: disk diffusion
Procedure: (§1) Antimicrobial activity was assayed by National Committee for Clinical Laboratory Standards (NCCLS) disk susceptibility tests. Isolated colonies from overnight cultures were suspended and diluted as recommended to yield approximately 1-2×10^8 cfu/ml, and 50 μl of this preparation immediately spread on agar plates. NCCLS recommended agar media were used for S. pneumoniae and N. gonorrhoeae, and Mueller-Hinton agar for all other bacteria. Yeast strains were tested on SDA. Excess moisture was absorbed for 10 min prior to application of 6 mm paper discs containing two-fold dilutions of TMPN in sterile DMSO.

[2] = system: Neisseria gonorrhoeae ATCC 49226; assay: NCCLS disk susceptibility test; format: cell-based; details: disk diffusion
Procedure: as §1

[3] = system: Klebsiella pneumoniae Presque Isle 344; assay: NCCLS disk susceptibility test; format: cell-based; details: disk diffusion
Procedure: as §1

[4] = system: Cryptococcus neoformans ATCC 90112; assay: NCCLS disk susceptibility test; format: cell-based; details: disk diffusion
Procedure: as §1

[5] = system: A. niger (ASU culture collection); assay: Broth macrodilution MIC/MFC, filamentous fungi; format: cell-based, Aspergillus niger
Procedure: Susceptibility testing of filamentous fungi was also conducted. Broth macrodilution susceptibility testing of P. lilacinus, Rhizopus spp. and Aspergillus spp. was performed in accordance with a proposed standardized procedure with slight modification. To induce conidium and sporangiospore formation, fungi were grown on PDA slants at 35° C. for 6 days (P. lilacinus, Rhizopus spp., all Aspergillus species except A. nidulans) or 3 days (A. nidulans). Fungal slants were covered with sterile 0.85% NaCl (P. lilacinus, Rhizopus spp., all Aspergillus species except A. nidulans) or 0.05% Tween 80 (A. nidulans), and suspensions were made by gently probing the colonies with the tip of a sterile Pasteur pipette. The resulting mixture of hyphal fragments and conidia or sporangiospores was withdrawn and transferred to a sterile clear microcentrifuge tube, and heavy particles were allowed to settle for 10 min. […] Susceptibility to TMPN was then determined by broth macrodilution as described above for yeast isolates. […]
(§2) Minimum fungicidal concentrations (MFCs) were determined by subculturing 0.1 ml from each tube with no visible growth in the MIC broth macrodilution series onto the appropriate drug-free plates (see Fungal Strains section above).

C. albicans (ATCC 90028) = assay: Video-enhanced DIC microscopy of yeast/hyphal morphology; format: cell-based, Candida albicans
Source text: The mechanism of action of TMPN was investigated microscopically, Candida albicans (ATCC 90028) cultures were exposed to one quarter or one half times the broth macrodilution MIC of TMPN in DMSO, or an equivalent concentration of DMSO for controls, until late-log phase. Cells were examined using an Axioscope microscope (Carl Zeiss, Thornwood, N.Y.) equipped with standard differential interference contrast (DIC) using a Plan-Neofluar 100×/1.3 (oil immersion) objective. The microscope was coupled to a C24007-07 (imaging tube camera type) video camera, via a 4×extension tube (Carl Zeiss), and an analog control unit (Hammamatsu Photonic Systems Corp., Bridgewater, N.J.). Real-time digital contrast enhancement was done with an Argus 10 Image Processor (Hammamatsu). Single frame images were digitized directly or from videotaped sequences using a Sony UP-5600MD video/digital printer (Sony Electronics, Inc., Montvale, N.J.) and prepared for printing in Photoshop 5.0 (Adobe Systems, Mountain View, Calif.). Final images were printed with a NP-1600M Medical Color Printer (Codonics, Inc., Middleburg Heights, Ohio).

[6] = system: all 60 Candida spp. clinical isolates; assay: Broth macrodilution MFC/MIC ratios, combined Candida isolates; format: cell-based; details: all 60 Candida spp. clinical isolates combined
Procedure: (§3) TMPN was screened against yeasts by the broth macrodilution assay according to the NCCLS [7]. Yeasts were suspended and diluted as recommended to yield final inocula ranging from 0.5-2.5×10^3 cfu/ml. Tests were performed in sterile 12 by 75 mm plastic tubes containing two-fold dilutions of TMPN in 0.165 M morpholinepropanesulfonic acid buffered RPMI 1640 medium (pH 7.0). One tube was again left drug free (but contained an equivalent volume of DMSO) for a turbidity control. Tubes were incubated without agitation at the appropriate temperature (see Fungal Strains section above). MICs were determined after 72 h for Cryptococcus and after 48 h for other yeast genera. The MIC was defined as the lowest concentration of TMPN that inhibited all visible growth of the test organism (optically clear).
as §2

C. ater ATCC 14247 = assay: Broth macrodilution MIC/MFC; format: cell-based, Cryptococcus ater
Procedure: as §3, §2

C. krusei (10) = assay: Broth macrodilution MIC/MFC; format: cell-based, Candida krusei
Procedure: as §3, §2

C. guilliermondii (9) = assay: Broth macrodilution MIC/MFC; format: cell-based, Candida guilliermondii
Procedure: as §3, §2

T. asahii ATCC 20039 = assay: Broth macrodilution MIC/MFC; format: cell-based, Trichosporon asahii
Procedure: as §3, §2

C. laurentii ATCC 66036 = assay: Broth macrodilution MIC/MFC; format: cell-based, Cryptococcus laurentii
Procedure: as §3, §2

C. laurentii ATCC 18803 = assay: Broth macrodilution MIC/MFC; format: cell-based, Cryptococcus laurentii
Procedure: as §3, §2

C. laurentii ATCC 34142 = assay: Broth macrodilution MIC/MFC; format: cell-based, Cryptococcus laurentii
Procedure: as §3, §2

[7] = system: 132 reference strains and clinical isolates; assay: Broth macrodilution MIC/MFC, all fungi tested (summary); format: cell-based
Procedure: as §3
Susceptibility testing of filamentous fungi was also conducted. Broth macrodilution susceptibility testing of P. lilacinus, Rhizopus spp. and Aspergillus spp. was performed in accordance with a proposed standardized procedure with slight modification. To induce conidium and sporangiospore formation, fungi were grown on PDA slants at 35° C. for 6 days (P. lilacinus, Rhizopus spp., all Aspergillus species except A. nidulans) or 3 days (A. nidulans). Fungal slants were covered with sterile 0.85% NaCl (P. lilacinus, Rhizopus spp., all Aspergillus species except A. nidulans) or 0.05% Tween 80 (A. nidulans), and suspensions were made by gently probing the colonies with the tip of a sterile Pasteur pipette. The resulting mixture of hyphal fragments and conidia or sporangiospores was withdrawn and transferred to a sterile clear microcentrifuge tube, and heavy particles were allowed to settle for 10 min. The upper homogenous suspension was transferred to a sterile microcentrifuge tube, vortexed for 15 s, adjusted spectrophotometrically, and diluted in sterile 0.165 M MOPS-buffered RPMI medium, pH 7.0, to yield final inocula ranging from 0.5-2.5×10^3 cfu/ml. Susceptibility to TMPN was then determined by broth macrodilution as described above for yeast isolates. MICs were read after 48 h The MIC was defined as the lowest concentration of TMPN that inhibited all visible growth of the test organism (optically clear).
as §2
Possible host effects were also evaluated. Broth macrodilution assays were performed with RPMI medium prepared at pH 5, pH 6, and pH 7, and in RPMI medium with and without 50% normal human serum (Lampire Biological Labs). The pH experiments were performed twice on separate days.

Compound: COc1cc(C=C[N+](=O)[O-])cc(OC)c1OC [TMPN, 1-(3′,4′,5′-trimethoxyphenyl)-2-nitro-ethylene]
- MIC [1]: 3.12-6.25 μg/disk
- MIC [2]: 0.39-0.78 μg/disk
- MIC [3]: >100 μg/disk
- MIC [4]: 0.78-1.56 μg/disk
- MFC Range [5]: 64 µg/mL (≈ 268 µM)
- MIC Range [5]: 16 µg/mL (≈ 66.9 µM)
- cells with hyphal extensions (C. albicans (ATCC 90028); one half times the TMPN MIC): not observed
- growth morphology observed (FIG. 4 panel b) (C. albicans (ATCC 90028); one half times the TMPN MIC): only yeast growth
- growth rate (C. albicans (ATCC 90028); one half times the TMPN MIC): same rate as controls
- hyphae seen (C. albicans (ATCC 90028); one quarter times the TMPN MIC): rarely seen
- length of hyphae (C. albicans (ATCC 90028); one quarter times the TMPN MIC): < 20 μm
- yeast/hyphae switching (C. albicans (ATCC 90028); sub-MIC exposure): did not exhibit yeast/hyphae switching
- share of isolates with MFC/MIC ratio ≦2 [6]: 47%
- share of isolates with MFC/MIC ratio ≦4 [6]: 60%
- MFC Range (C. ater ATCC 14247): 16 µg/mL (≈ 66.9 µM)
- MIC Range (C. ater ATCC 14247): 8 µg/mL (≈ 33.4 µM)
- MFC 50% (MFC at which 50% of the strains are killed) (C. krusei (10); C. krusei (10)): 32 µg/mL
- MFC 90% (MFC at which 90% of the strains are killed) (C. krusei (10); C. krusei (10)): 32 µg/mL
- MFC Range (C. krusei (10); C. krusei (10)): 16 to 64 µg/mL
- MIC Range (C. krusei (10); C. krusei (10)): 8 to 16 µg/mL
- share of isolates with MFC/MIC ratio <2 (C. krusei (10); C. krusei clinical isolates): 70%
- MIC50 (C. krusei (10); Pichia kudriavzevii, C. krusei (10), read-out: MIC 50% (MIC at which 50% of the strains are inhibited)): 8 µg/mL (≈ 33.4 µM)
- MIC90 (C. krusei (10); Pichia kudriavzevii, C. krusei (10), read-out: MIC 90% (MIC at which 90% of the strains are inhibited)): 16 µg/mL (≈ 66.9 µM)
- MFC Range (C. guilliermondii (9)): >64 µg/mL
- MFC Range (T. asahii ATCC 20039): 16 µg/mL (≈ 66.9 µM)
- MIC Range (T. asahii ATCC 20039): 8 µg/mL (≈ 33.4 µM)
- MFC Range (C. laurentii ATCC 66036): 32 µg/mL (≈ 134 µM)
- MIC Range (C. laurentii ATCC 66036): 16 µg/mL (≈ 66.9 µM)
- MFC Range (C. laurentii ATCC 18803): 32 µg/mL (≈ 134 µM)
- MIC Range (C. laurentii ATCC 18803): 16 µg/mL (≈ 66.9 µM)
- MFC Range (C. laurentii ATCC 34142): 32 µg/mL (≈ 134 µM)
- MIC Range (C. laurentii ATCC 34142): 32 µg/mL (≈ 134 µM)
- antifungal spectrum in broth macrodilution assays [7]: broad-spectrum antifungal activity
- activity in the presence of serum ([7]; 50% human serum): not active against all species
- fungicidal action ([7]; 132 reference strains and clinical isolates, incl. those resistant to fluconazole, ketoconazole, amphotericin B or flucytosine): fungicidal for the majority
- effect of media pH on activity (MICs and MFCs) ([7]; pH 5, pH 6 and pH 7): unaffected; also recorded: identical or differed by no more than a single 2-fold dilution
